Common to all, as to experiment: relative viability (nuclei count vs DMSO), 5 days (fraction); higher = more cells survive
Compound in test [1]: CC(C)(C)c1cc(NC(=O)Nc2ccc(-c3cn4c(n3)sc3cc(OCCN5CCOCC5)ccc34)cc2)no1 [Quizartinib] + NC(=O)Nc1cc(-c2cccc(F)c2)sc1C(=O)N[C@H]1CCCNC1 [AZD7762] (partner 0.2 µM)
The method, boiled down: (§1)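 Five library-drug doses in √10 steps were combined with a fixed anchor-drug dose, or a single drug was given alone, by pin tool to lung cancer cell lines in 1536-well plates the day after seeding. Nuclei were stained and counted after 5 days. Relative viability is the nuclei count in treated wells over that in vehicle wells, taken as the median of duplicate plates.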

Compound in test [2]: CC(C)(C)c1cc(NC(=O)Nc2ccc(-c3cn4c(n3)sc3cc(OCCN5CCOCC5)ccc34)cc2)no1 [Quizartinib] + COc1cccc2cc(-c3nc([C@H]4CC[C@H](C(=O)O)CC4)n4ncnc(N)c34)[nH]c12 [OSI-027] (partner 0.5 µM)
A digest of the protocol:
as §1

Compound in test [3]: COCC[n+]1c2c(n(Cc3cnccn3)c1C)C(=O)c1ccccc1C2=O [YM155] + Cc1nc(NC(=O)N2CCC[C@H]2C(N)=O)sc1-c1ccnc(C(C)(C)C(F)(F)F)c1 [Alpelisib] (partner 2 µM)
A digest of the protocol:
as §1

Compound in test [4]: CC(C)(C)c1cc(NC(=O)Nc2ccc(-c3cn4c(n3)sc3cc(OCCN5CCOCC5)ccc34)cc2)no1 [Quizartinib] + Cc1cc(Nc2cc(N3CCN(C)CC3)nc(Sc3ccc(NC(=O)C4CC4)cc3)n2)n[nH]1 [Tozasertib] (partner 0.1 µM)
A digest of the protocol: as §1

2 cell lines from the supplement of paper PMC10307832 can be followed below.

With PC-14, the relative viability in test [1] (first compound 0.001 µM) stood at 0.31; in test [1] (first compound 0.003162 µM) it was 0.417; in test [1] (first compound 0.01 µM), 0.327; in test [1] (first compound 0.03162 µM), 0.22; in test [1] (first compound 0.1 µM), 0.457; in test [2] (first compound 0.001 µM) it was 0.737. Moreover, the relative viability in test [2] (first compound 0.003162 µM) was 0.754; in test [2] (first compound 0.01 µM) it was 1; in test [2] (first compound 0.1 µM), 0.882; in test [3] (first compound 0.002 µM), 1; in test [3] (first compound 0.006325 µM) it was 1.02; in test [3] (first compound 0.02 µM) it was 0.953. Besides, the relative viability in test [3] (first compound 0.06325 µM) came to 0.811; in test [4] (first compound 0.001 µM), 0.555; in test [4] (first compound 0.003162 µM), 0.551; in test [4] (first compound 0.01 µM), 0.584; in test [4] (first compound 0.03162 µM), 0.556; in test [4] (first compound 0.1 µM), 0.558.
For the cell line RERF-LC-KJ, the relative viability in test [1] (first compound 0.001 µM) came to 0.898; in test [1] (first compound 0.003162 µM), 0.954; in test [1] (first compound 0.01 µM), 0.945; in test [1] (first compound 0.03162 µM), 0.98; in test [1] (first compound 0.1 µM), 0.987; in test [2] (first compound 0.001 µM) it was 0.536. The relative viability in test [2] (first compound 0.003162 µM) came to 0.534; in test [2] (first compound 0.01 µM), 0.592; in test [2] (first compound 0.03162 µM) it was 0.341; in test [2] (first compound 0.1 µM), 0.521; in test [3] (first compound 0.002 µM), 0.806; in test [3] (first compound 0.006325 µM), 0.705. For the same cell line, the relative viability came to 0.771 in test [3] (first compound 0.02 µM); 0.842 in test [3] (first compound 0.06325 µM); 0.47 in test [4] (first compound 0.001 µM); 0.445 in test [4] (first compound 0.003162 µM); 0.53 in test [4] (first compound 0.01 µM); 0.248 in test [4] (first compound 0.03162 µM). Also, the relative viability in test [4] (first compound 0.1 µM) is 0.337.
